In ChEMBL document CHEMBL1201862, “PubChem BioAssay data set” (2004):
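All cell lines were grown in 96-well plates and treated with compound for 48 hours. Here, GI50 denotes the concentration required for 50% inhibition of growth.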 Calls of active or inactive are those of the source. No stated cut-off is given here; in the data, active = GI50 up to about 1.1 µM and inactive = higher.

What was measured:
Assay in all cases: NCI-60 cell line screen, 48 h
[1] = tested on: A498
[2] = tested on: A549
[3] = tested on: CAKI-1
[4] = tested on: CCRF-CEM
[5] = tested on: EKVX
[6] = tested on: HCC 2998
[7] = tested on: HCT-15
[8] = tested on: HT-29
[9] = tested on: MOLT-4
[10] = tested on: Malme-3M
[11] = tested on: NCI-H226
[12] = tested on: NCI-H23
[13] = tested on: NCI-H460
[14] = tested on: NCI/ADR-RES
[15] = tested on: PC-3
[16] = tested on: RXF 393
[17] = tested on: SK-MEL-2
[18] = tested on: SK-MEL-5
[19] = tested on: SNB-19
[20] = tested on: SR

| Compound | GI50 [1] | GI50 [2] | GI50 [3] | GI50 [4] | GI50 [5] | GI50 [6] | GI50 [7] | GI50 [8] | GI50 [9] | GI50 [10] | GI50 [11] | GI50 [12] | GI50 [13] | GI50 [14] | GI50 [15] | GI50 [16] | GI50 [17] | GI50 [18] | GI50 [19] | GI50 [20] |
| --- | --- | --- | --- | --- | --- | --- | --- | --- | --- | --- | --- | --- | --- | --- | --- | --- | --- | --- | --- | --- |
| CCc1cc(Cc2cc(CC)c(NC(=O)C(=O)CC(=O)c3sc(-c4cccnc4)nc3C)c(CC)c2)cc(CC)c1NC(=O)C(=O)CC(=O)c1sc(-c2cccnc2)nc1C | > 100 µM (inactive) | > 100 µM (inactive) | > 10 µM (inactive) | > 100 µM (inactive) | > 100 µM (inactive) | > 100 µM (inactive) | > 100 µM | > 100 µM (inactive) | > 100 µM (inactive) | > 100 µM (inactive) | > 100 µM (inactive) | > 100 µM (inactive) | > 100 µM (inactive) | > 100 µM (inactive) | > 100 µM (inactive) | > 100 µM (inactive) | > 100 µM (inactive) | > 100 µM (inactive) | > 100 µM (inactive) | > 10 µM (inactive) |
| N=C(N)N/N=C/c1c(-c2ccc(Cl)c([N+](=O)[O-])c2)nc2sc(Cl)cn12 | 1.95 µM (inactive) | 2.47 µM (inactive) | 2.34 µM (inactive) | 0.565 µM (active) | 2.83 µM (inactive) | 3.27 µM (inactive) | 2.29 µM | 2.36 µM (inactive) | 1.63 µM (inactive) | 2.84 µM (inactive) | 41.4 µM (inactive) | 3.68 µM (inactive) | 2.7 µM (inactive) | 46 µM (inactive) | 1.88 µM (inactive) | 1.77 µM (inactive) | 1.69 µM (inactive) | 4.07 µM (inactive) | 1.79 µM (inactive) | 1.44 µM (inactive) |
| N#Cc1c2c(c(Nc3ccc(F)cc3)n3c1nc1ccccc13)CCCC2 | > 100 µM (inactive) | 97.9 µM (inactive) | > 52.2 µM (inactive) | > 22.5 µM (inactive) | > 100 µM (inactive) | > 100 µM (inactive) | > 100 µM | > 100 µM (inactive) | 6.32 µM (inactive) | > 100 µM (inactive) | > 80 µM (inactive) | > 100 µM (inactive) | 23.1 µM (inactive) | > 100 µM (inactive) | 5.36 µM (inactive) | 24 µM (inactive) | > 100 µM (inactive) | 23.8 µM (inactive) | 26.7 µM (inactive) | 74.3 µM (inactive) |
| CC(C)n1c(=O)n(-c2ccccc2)n(C(C)(C)C)c1=O | > 100 µM (inactive) | > 100 µM (inactive) | > 100 µM (inactive) | > 100 µM (inactive) | > 100 µM (inactive) | > 100 µM (inactive) | > 100 µM | > 100 µM (inactive) | > 100 µM (inactive) | > 100 µM (inactive) | > 100 µM (inactive) | 83.2 µM (inactive) | > 100 µM (inactive) | > 100 µM (inactive) | > 100 µM (inactive) | > 100 µM (inactive) | > 100 µM (inactive) | > 100 µM (inactive) | > 100 µM (inactive) | 58.5 µM (inactive) |
| c1ccc(C2=C(c3ccccc3)Sc3nnc(CCCCCCCCc4nnc5n4NC(c4ccccc4)=C(c4ccccc4)S5)n3N2)cc1 | > 100 µM (inactive) | 34.7 µM (inactive) | > 100 µM (inactive) | 20.9 µM (inactive) | 35.5 µM (inactive) | 85.5 µM (inactive) | 37.5 µM | 31.8 µM (inactive) | 17.9 µM (inactive) | > 100 µM (inactive) | > 100 µM (inactive) | 49 µM (inactive) | 48.9 µM (inactive) | 45.8 µM (inactive) | 41.4 µM (inactive) | 50.4 µM (inactive) | 63 µM (inactive) | 33.6 µM (inactive) | 54.6 µM (inactive) | 29.9 µM (inactive) |
| CC(C)(C)[Si](C)(C)O[C@@H](C(=O)OC1C=CCCC1)[C@@H](NC(=O)c1ccccc1)c1ccccc1 (stereo not given in full) | 35.6 µM (inactive) | 17.6 µM (inactive) | 48.6 µM (inactive) | 12.1 µM (inactive) | 31.7 µM (inactive) | 14.1 µM (inactive) | 20 µM | 14.3 µM (inactive) | 14.7 µM (inactive) | 40.3 µM (inactive) | 37.8 µM (inactive) | 29 µM (inactive) | 19.9 µM (inactive) | 28.6 µM (inactive) | 9.1 µM (inactive) | 3.68 µM (inactive) | 18 µM (inactive) | 16.8 µM (inactive) | 28.8 µM (inactive) | 15.1 µM (inactive) |
| O=C1OCc2c1cc1cc3c(cc1c2-c1ccc2c(c1)OCO2)OCO3.O=C1OCc2cc3cc4c(cc3c(-c3ccc5c(c3)OCO5)c21)OCO4 | 24.7 µM (inactive) | – | 11.8 µM (inactive) | 3.34 µM (inactive) | – | 18.7 µM (inactive) | 6.18 µM | 7.23 µM (inactive) | 2.31 µM (inactive) | 37.2 µM (inactive) | 9.77 µM (inactive) | 28.8 µM (inactive) | 5.79 µM (inactive) | 4.68 µM (inactive) | 8.38 µM (inactive) | 5.73 µM (inactive) | 11.4 µM (inactive) | 4.7 µM (inactive) | 30 µM (inactive) | 5.7 µM (inactive) |
| CC12C(=O)OC(=O)C1(C)C1C=CC2O1 (stereo not given) | > 100 µM (inactive) | > 100 µM (inactive) | 54.7 µM (inactive) | > 100 µM (inactive) | > 100 µM (inactive) | > 100 µM (inactive) | > 100 µM | > 100 µM (inactive) | > 100 µM (inactive) | 67.6 µM (inactive) | 21.7 µM (inactive) | > 100 µM (inactive) | > 100 µM (inactive) | > 100 µM (inactive) | > 100 µM (inactive) | 40.6 µM (inactive) | > 100 µM (inactive) | 66.4 µM (inactive) | 37.8 µM (inactive) | > 100 µM (inactive) |
| COc1cc(/C=C2\C[C@H]3[C@@H]4CCc5cc(O)ccc5[C@H]4CC[C@]3(C)C2=O)cc(OC)c1OC | 32.4 µM (inactive) | 15.6 µM (inactive) | 11.4 µM (inactive) | 12.9 µM (inactive) | 10.1 µM (inactive) | 12.9 µM (inactive) | 25.8 µM | 12.5 µM (inactive) | 11.1 µM (inactive) | 2.53 µM (inactive) | 6.05 µM (inactive) | 14.4 µM (inactive) | 45.2 µM (inactive) | 16.8 µM (inactive) | 10.1 µM (inactive) | 9.57 µM (inactive) | 14 µM (inactive) | 4.31 µM (inactive) | 19.9 µM (inactive) | 3.21 µM (inactive) |
| COc1ccc(NC(C)=O)cc1N1C(=O)/C(=C\c2cc(OC)c(OC)c(OC)c2)S(=O)(=O)C1c1ccccc1 (stereo not given) | > 100 µM (inactive) | 61.7 µM (inactive) | > 100 µM (inactive) | 29.3 µM (inactive) | 23.5 µM (inactive) | > 100 µM (inactive) | 73.1 µM | 47.2 µM (inactive) | 22 µM (inactive) | 78.3 µM (inactive) | 26.5 µM (inactive) | 71.4 µM (inactive) | 58.9 µM (inactive) | 73.6 µM (inactive) | 39.3 µM (inactive) | 74.6 µM (inactive) | > 100 µM (inactive) | 44.8 µM (inactive) | > 100 µM (inactive) | 33 µM (inactive) |
| O=C(CC(O)c1cccnc1)CC(O)c1cccnc1 (stereo not given) | 15.9 µM (inactive) | 20.6 µM (inactive) | 17.7 µM (inactive) | 3.02 µM (inactive) | 20.9 µM (inactive) | 3.82 µM (inactive) | 14.1 µM | 7.05 µM (inactive) | 3.49 µM (inactive) | 18.4 µM (inactive) | 45.7 µM (inactive) | 22.5 µM (inactive) | 19.7 µM (inactive) | 24 µM (inactive) | 15.8 µM (inactive) | 16.7 µM (inactive) | 18.9 µM (inactive) | 16.1 µM (inactive) | 21.7 µM (inactive) | 2.78 µM (inactive) |
| CCOC(=O)c1cc(-c2ccc(OC)c(OC)c2)cn1C | > 10 µM (inactive) | > 10 µM (inactive) | > 10 µM (inactive) | > 10 µM (inactive) | > 10 µM (inactive) | > 10 µM (inactive) | > 10 µM | > 10 µM (inactive) | > 10 µM (inactive) | > 10 µM (inactive) | > 10 µM (inactive) | > 10 µM (inactive) | > 10 µM (inactive) | > 10 µM (inactive) | > 10 µM (inactive) | > 10 µM (inactive) | > 10 µM (inactive) | > 10 µM (inactive) | > 10 µM (inactive) | > 10 µM (inactive) |
| COC1(OC)C2(Cl)C(Cl)=C(Cl)C1(Cl)C1COCC12 (stereo not given) | > 100 µM (inactive) | > 100 µM (inactive) | > 100 µM (inactive) | > 100 µM (inactive) | – | > 100 µM (inactive) | > 100 µM | > 100 µM (inactive) | > 100 µM (inactive) | > 100 µM (inactive) | > 100 µM (inactive) | > 45 µM (inactive) | > 100 µM (inactive) | > 100 µM (inactive) | > 100 µM (inactive) | > 100 µM (inactive) | > 100 µM (inactive) | > 100 µM (inactive) | > 100 µM (inactive) | > 75.3 µM (inactive) |
| Clc1ccc(Cc2nc3cc(Cl)c(Cl)cc3n2CC2CCCN3CCCCC23)cc1Cl (stereo not given) | 8.17 µM (inactive) | 4.93 µM (inactive) | 3.46 µM (inactive) | – | 3.28 µM (inactive) | 1.65 µM (inactive) | 4.76 µM | 2.43 µM (inactive) | 4.34 µM (inactive) | 1.79 µM (inactive) | 7.16 µM (inactive) | – | 3.1 µM (inactive) | 4.46 µM (inactive) | 4.12 µM (inactive) | 7.53 µM (inactive) | 6.34 µM (inactive) | 1.85 µM (inactive) | 2.9 µM (inactive) | 2.78 µM (inactive) |
